In PMC12040169 (PLOS Biology, 2025):

Test: in vitro
Settings: human, hela cells, % viability

Compound	viability at 28.5 h, 10 µM	viability at 28.5 h, 10 µM (bulk resorufin, single well)
CCCNC(=O)c1sc(Nc2ccc(Cl)cn2)nc1C [CBK287850]	98.4%	–
Cn1c(=O)[nH]c2c(nc(-c3ccccc3)n2C)c1=O [CBK287855]	78.2%	–
Cc1ccc(C(=O)Nc2nnn(C)n2)c(Cl)c1 [CBK287856]	97.4%	–
c1ccc(-c2nc3cnccn3c2Nc2ccc3c(c2)OCCO3)cc1 [CBK287857]	94.4%	–
O=c1c2c(-c3ccccc3)ccnc2[nH]n1-c1ccccc1 [CBK287858]	97%	–
O=C1CC(c2ccco2)Cc2c1cnn2-c1ccccc1 (stereo not shown) [CBK287860]	95.8%	–
CC(=O)c1c(O)n(C2CCCCC2)c(=O)[nH]c1=O [CBK287861]	–	91.9%
Cc1cc(C)nc(NC(=N)NC2Cc3ccccc3C2)n1 [CBK287863]	43.4%	–
CC(C)Cn1cnc2c(c1=N)C(c1ccccc1)c1ccc(O)cc1O2 (stereo not shown) [CBK287864]	101%	–
c1cc2c(cc1-c1nn3cnnc3s1)OCCO2 [CBK287866]	88.1%	–
O=C(O)c1ccc(-c2n[nH]c(=O)c3c2CCCC3)cc1 [CBK287868]	93.6%	–
c1ccc(-c2cc3nccc(-c4ccccc4)n3n2)cc1 [CBK287871]	93.7%	–
Cc1nnc(Nc2ccc(F)cc2)c2ccccc12 [CBK287873]	93.9%	–
COc1ccc(-c2noc(-c3cnccn3)n2)c(OC)c1 [CBK287878]	83.6%	–
Cc1nn2c(N)ncnc2c1-c1ccc(Cl)cc1 [CBK287880]	68.8%	–
Nc1nc(-c2ccc(F)cc2)c2c(n1)-c1ccccc1C2=O [CBK287881]	114%	–
O=C(Nc1cccc2ncccc12)c1ccnc(N2CCOCC2)c1 [CBK287882]	102%	–
Fc1ccccc1CSc1nc2ccc[nH]c-2n1 [CBK287883]	91.2%	–
CC1CC(=O)c2cnc(Nc3ccccc3)nc2C1 (stereo not shown) [CBK287884]	92.4%	–
Cc1nn(-c2ncccn2)c2c1C(C(=O)c1ccccc1)CC(=O)N2 (stereo not shown) [CBK287890]	93.2%	–
Cc1c(C)c2c(O)n(-c3ccccc3)nc2[nH]c1=O [CBK287891]	89.3%	–
O=C1Nc2ccccc2C1Cc1cccc(OC(F)F)c1 (stereo not shown) [CBK287892]	95%	–
Cc1nn(-c2ccccc2)c2c1C(c1cnn(C)c1)SCC(=O)N2 (stereo not shown) [CBK287896]	114%	–
O=c1cnnc(Nc2cccc(Cl)c2Cl)[nH]1 [CBK287897]	93%	–

Compound	viability at 28.5 h, 10 µM	viability at 28.5 h, 10 µM (bulk resorufin, single well)
Cc1nc(=O)c(-c2ccccc2)c(C)n1CCc1c[nH]cn1 [CBK287900]	89.3%	–
O=C(C1CCCN(c2ccc3nncn3n2)C1)N1CCOCC1 (stereo not shown) [CBK287901]	104%	–
Cn1c(=O)c2[nH]c(-c3ccncc3)nc2n(C)c1=O [CBK287902]	92.5%	–
O=C(c1ccccc1)N1CCc2[nH]nc(-c3ccccc3)c2C1 [CBK287904]	92.5%	–
COc1ccc(C2C=C(C)Nc3nc(N)nn32)cc1 (stereo not shown) [CBK287906]	91.8%	–
Fc1ccc(CCNc2ccc3nncn3n2)cc1 [CBK287909]	88.2%	–
Cn1ccc2ccc(C(=O)Nc3nccs3)cc21 [CBK287910]	106%	–
O=C1CC(c2ccccc2)c2c(n3ncnc3[nH]c2=O)N1 (stereo not shown) [CBK287912]	89.4%	–
O=C(NCc1ccccc1)C1CCCN(c2ncnc3[nH]cnc23)C1 (stereo not shown) [CBK287916]	91.4%	–
Cc1cc(C)c2c(n1)oc1c(NC(C)C)ncnc12 [CBK287917]	108%	–
O=C(O)CCC(=O)N1CCC(c2nnc3ccccn23)CC1 [CBK287920]	104%	–
Oc1cnnc(Nc2ccc(Nc3ccccc3)cc2)n1 [CBK287921]	101%	–
Cc1cc(Cl)ccc1Nc1nnc(C)c(=O)[nH]1 [CBK287922]	110%	–
O=C1CC(c2ccccc2)c2c(n3ccsc3nc2=O)N1 (stereo not shown) [CBK287923]	98.7%	–
CC(C)CC1CC(=O)Nc2c1c(=O)[nH]n2C(C)C (stereo not shown) [CBK287924]	105%	–
Cc1nn(-c2ccccc2)c(C)c1C1CC(=O)Nc2c1cnn2C(C)C (stereo not shown) [CBK287925]	104%	–
CC(C)n1ncc2c1NC(=O)CC2c1ccc2c(c1)n(C)c(=O)n2C (stereo not shown) [CBK287926]	108%	–
O=C1CC(c2cccnc2)c2sc(N3CCOCC3)nc2N1 (stereo not shown) [CBK287927]	105%	–
Cc1ccc(-c2[nH]ncc2C(=O)c2ccccc2C)c(O)c1 [CBK287929]	102%	–
NC(=O)c1cccnc1-c1nc2ccccc2s1 [CBK287930]	80%	–
Cc1cc(NCc2ccccc2)nc2[nH]nc(N)c12 [CBK287931]	87.7%	–
CCc1cc(-c2n[nH]cc2-c2nc(C)cs2)c(O)cc1OC [CBK287934]	103%	–
O=C1CSC(c2ccc(F)cc2Cl)c2c[nH]nc2N1 (stereo not shown) [CBK287935]	91.4%	–
CC(=O)Nc1nc(NC(C)=O)n(-c2ccccc2)n1 [CBK287938]	86%	–

Compound	viability at 28.5 h, 10 µM	viability at 28.5 h, 10 µM (bulk resorufin, single well)
Cc1nc2c(c(N3CCOCC3)n1)OCC(=O)N2 [CBK287939]	94.5%	–
Cn1ncc2c1NC(=O)CC2c1c[nH]nc1-c1ccccc1 (stereo not shown) [CBK287941]	99.5%	–
N#Cc1cnn2c(O)cc(Cc3ccccc3)nc12 [CBK287942]	110%	–
Cc1cc(-c2nnc3n2N=C(c2ccccc2)CS3)n[nH]1 [CBK287944]	98.3%	–
Nc1nc2n(n1)C(c1ccccc1)C1=C(CCCC1)N2 (stereo not shown) [CBK287949]	107%	–
Cn1c2ccccc2c2ncn(CCCO)c(=O)c21 [CBK287951]	56.9%	–
CCn1cnc2sc(-c3ccccc3)cc2c1=O [CBK287952]	65.7%	–
CCN1CCN(c2ccc(N3C(=O)N[C@@H](C(C)C)C3=O)cc2)CC1 [CBK287953]	87.5%	–
CSCC[C@@H]1NC(=O)N(c2ccc(CN3CCOCC3)cc2)C1=O [CBK287954]	83.2%	–
CN(CCC#N)C(=O)c1cc2cc(Cl)ccc2[nH]1 [CBK287956]	98%	–
Cc1cccc(-c2n[nH]/c(=N/C(=O)c3ccccc3F)s2)c1 [CBK287957]	84.5%	–
O=c1nc2n(Cc3ccccc3)c3ccccc3cc-2c(=O)[nH]1 [CBK287958]	79.8%	–
COc1ccc(O)c(-c2c(-c3ccc(C)cc3)n[nH]c2C)c1 [CBK287961]	93.1%	–
Cc1cccc(CSc2nc3ncccc3[nH]2)c1 [CBK287963]	96.9%	–
CCOCCCNc1nc2c(c(=O)[nH]c(=O)n2C)n1CCC(C)C [CBK287968]	87.7%	–
O=C1NC2(CCCCC2)C(=O)N1c1cccc(Cl)c1 [CBK287969]	94.3%	–
CN(Cc1ccccc1)C(=O)c1cc(=O)[nH]c2ccccc12 [CBK287971]	92.8%	–
CCN1CCN(c2ccc3nnc(C(C)C)n3n2)CC1 [CBK287974]	88.3%	–
O=c1c2cc(OCc3ccc(Cl)cc3)ccc2nc2n1CCC2 [CBK287977]	91.6%	–
Cc1ccc(-c2ccnc3[nH]c(=O)[nH]c(=O)c23)cc1 [CBK287978]	89.7%	–
O=C1CC(C(=O)Nc2ccccc2)n2cnnc2N1 (stereo not shown) [CBK287980]	112%	–
COc1cccc(C2SCC(=O)Nc3[nH]nc(C)c32)c1 (stereo not shown) [CBK287981]	78.2%	–
